Data from ChEMBL document CHEMBL4257451, “Synergism of fused bicyclic 2-aminothiazolyl compounds with polymyxin B against Klebsiella pneumoniae” (Medchemcomm, 2017).

How the values were obtained:
Klebsiella pneumoniae [1] = assay: Synergistic antibacterial activity against Klebsiella pneumoniae SIPI-KPN-1712 assessed as fractional Inhibitory concentration index in presence of polymixin B at 2 ug/ml by broth microdilution method; assay type: functional
Klebsiella pneumoniae [2] = assay: Synergistic antibacterial activity against Klebsiella pneumoniae SIPI-KPN-1712 assessed as polymixin B MIC at 4 ug/ml by broth microdilution method (reference value: 32 ug/ml); assay type: functional
Klebsiella pneumoniae [3] = assay: Growth inhibition of Klebsiella pneumoniae SIPI-KPN-1712 by broth microdilution method; assay type: organism-based; conditions: in vitro

| Structure (SMILES) | fractional inhibitory concentration index (FICI) (Klebsiella pneumoniae [1]) | MIC (Klebsiella pneumoniae [2]) [µg/mL] | MIC (Klebsiella pneumoniae [3]) [µg/mL] |
| --- | --- | --- | --- |
| COC1CCCc2nc(Nc3ncccn3)sc21 (stereo unspecified) | 0.53 | 16 | > 128 |
| O=C(OC1CCCc2nc(Nc3ccc(Cl)cn3)sc21)n1ccnc1 (stereo unspecified) | 0.53 | 16 | > 128 |
| CCOC1CCCc2nc(Nc3ccc(F)cc3)sc21 (stereo unspecified) | 0.53 | 16 | > 128 |
| COC1CCCc2nc(Nc3ccc(C#N)cc3)sc21 (stereo unspecified) | 0.53 | 16 | > 128 |
| COC1CCCc2nc(Nc3ccc(C#N)c(C(F)(F)F)c3)sc21 (stereo unspecified) | 0.53 | 16 | > 128 |
| COc1ccc(Nc2nc3c(s2)C(OC)CCC3)cc1 (stereo unspecified) | 0.53 | 16 | > 128 |
| COC1CCCc2nc(Nc3cccc(C(F)(F)F)c3)sc21 (stereo unspecified) | 0.53 | 16 | > 128 |
| Clc1ccc(Nc2nc3ccc(Cl)cc3s2)cc1 | 1.03 | 32 | > 128 |
| COC1CCCc2nc(Nc3ccnc(Cl)c3)sc21 (stereo unspecified) | 0.16 | 4 | > 128 |
| COC1CCCc2nc(NN3CCOCC3)sc21 (stereo unspecified) | 0.53 | 16 | > 128 |
| COC1CCCc2nc(Nc3ccccc3C)sc21 (stereo unspecified) | 1.03 | 32 | > 128 |
| CCOC1CCCc2nc(Nc3ccc(Oc4ccccc4C)cc3)sc21 (stereo unspecified) | 1.03 | 32 | > 128 |
| Clc1ccc(Nc2nc3c(s2)C(OC2CCCC2)CCC3)cc1 (stereo unspecified) | 0.28 | 8 | > 128 |
| COC1CCCc2nc(Nc3ccc(Oc4ccccc4C)cc3)sc21 (stereo unspecified) | 0.53 | 16 | > 128 |
| O=C(OC1CCCc2nc(Nc3ccc(C(F)(F)F)cc3)sc21)n1ccnc1 (stereo unspecified) | 0.53 | 16 | > 128 |
| COc1cc(Nc2nc3c(s2)C(OC)CCC3)cc(OC)c1OC (stereo unspecified) | 0.53 | 16 | > 128 |
| COC1CCCc2nc(Nc3ccccc3C(F)(F)F)sc21 (stereo unspecified) | 0.53 | 16 | > 128 |
| CCOC1CCCc2nc(Nc3ccc(Cl)cc3)sc21 (stereo unspecified) | 0.06 | 1 | > 128 |
| COC1CCCc2nc(Nc3ccc(C(F)(F)F)cc3)sc21 (stereo unspecified) | 0.28 | 8 | > 128 |
| COC1CCCc2nc(Nc3ccc4ccccc4c3)sc21 (stereo unspecified) | 1.03 | 32 | > 128 |
| COC1CCCc2nc(Nc3ccccc3Cl)sc21 (stereo unspecified) | 1.03 | 32 | > 128 |
| COC1CCCc2nc(Nc3ccc(C(F)(F)F)cc3Cl)sc21 (stereo unspecified) | 0.16 | 4 | > 128 |
| COC1CCCc2nc(Nc3c(F)cccc3F)sc21 (stereo unspecified) | 1.03 | 32 | > 128 |
| CCOC1CCCc2nc(Nc3ccc(Br)cc3)sc21 (stereo unspecified) | 0.09 | 2 | > 128 |
| COC1CCCc2nc(Nc3ccc(C(C)=O)cc3)sc21 (stereo unspecified) | 0.53 | 16 | > 128 |
| COC1CCCc2nc(Nc3ccc(O)cc3)sc21 (stereo unspecified) | 1.03 | 32 | > 128 |

| Structure (SMILES) | fractional inhibitory concentration index (FICI) (Klebsiella pneumoniae [1]) | MIC (Klebsiella pneumoniae [2]) [µg/mL] | MIC (Klebsiella pneumoniae [3]) [µg/mL] |
| --- | --- | --- | --- |
| CCc1ccc(Nc2nc3c(s2)C(OC)CCC3)cc1 (stereo unspecified) | 1.03 | 32 | > 128 |
| Clc1ccc(Nc2nc3ccccc3s2)cc1 | 1.03 | 32 | > 128 |
| CCOC1CCCc2nc(Nc3ncccn3)sc21 (stereo unspecified) | 0.53 | 16 | > 128 |
| COCCOC1CCCc2nc(Nc3ccc(C)cc3)sc21 (stereo unspecified) | 1.03 | 32 | > 128 |
| OC1CCCc2nc(Nc3ccc(C(F)(F)F)cc3)sc21 (stereo unspecified) | 0.53 | 16 | > 128 |
| Cc1ccc(Nc2nc3c(s2)C(O)CCC3)cc1 (stereo unspecified) | 1.03 | 32 | > 128 |
| COC1CCCc2nc(Nc3cccc(Cl)c3)sc21 (stereo unspecified) | 0.28 | 8 | > 128 |
| COC1CCCc2nc(Nc3ccc(Cl)cc3)sc21 (stereo unspecified) | 0.06 | 1 | > 128 |
| CCOC1CCCc2nc(Nc3ccc4ccccc4n3)sc21 (stereo unspecified) | 1.03 | 32 | > 128 |
| COC1CCCc2nc(Nc3ccc(C(C)(C)C)cc3)sc21 (stereo unspecified) | 0.53 | 16 | > 128 |
| COC1CCCc2nc(Nc3ccc([N+](=O)[O-])cc3)sc21 (stereo unspecified) | 0.53 | 16 | > 128 |
| COC1CCCc2nc(Nc3cccc(F)c3)sc21 (stereo unspecified) | 1.03 | 32 | > 128 |
| COC1CCCc2nc(Nc3ccc(Oc4ccc(F)cc4)cc3)sc21 (stereo unspecified) | 1.03 | 32 | > 128 |
| OC1CCCc2nc(Nc3ccc4ccccc4c3)sc21 (stereo unspecified) | 0.53 | 16 | > 128 |
| COC1CCCc2nc(Nc3ccc(N(C)C)cc3)sc21 (stereo unspecified) | 0.53 | 16 | > 128 |
| COC1CCCc2nc(Nc3cccc(C)c3C)sc21 (stereo unspecified) | 1.03 | 32 | > 128 |
| OC1CCCc2nc(Nc3ccccc3)sc21 (stereo unspecified) | 1.03 | 32 | > 128 |
| COC1CCCc2nc(Nc3cccc(Br)c3)sc21 (stereo unspecified) | 0.53 | 16 | > 128 |
| COC1CCCc2nc(NCc3ccccc3)sc21 (stereo unspecified) | 1.03 | 32 | > 128 |
| COC1CCCc2nc(Nc3ccccc3)sc21 (stereo unspecified) | 1.03 | 32 | > 128 |
| COC1CCCc2nc(Nc3ccc(C)cc3)sc21 (stereo unspecified) | 0.53 | 16 | > 128 |
| O=C(OC1CCCc2nc(Nc3ccccc3)sc21)n1ccnc1 (stereo unspecified) | 0.53 | 16 | > 128 |
| CCCCOC1CCCc2nc(Nc3ccc(C)cc3)sc21 (stereo unspecified) | 1.03 | 32 | > 128 |
| CC(=O)c1ccc(Nc2nc3c(s2)C(O)CCC3)cc1 (stereo unspecified) | 0.53 | 16 | > 128 |
| COC1CCCc2nc(Nc3nccs3)sc21 (stereo unspecified) | 1.03 | 32 | > 128 |
| OC1CCCc2nc(Nc3ccc(F)cc3)sc21 (stereo unspecified) | 1.03 | 32 | > 128 |
